Results from patent publication US10894784B2, “Heteroarylbenzimidazole compounds” (BAYER PHARMA AKTIENGESELLSCHAFT, priority 2015, dated 2021).

Biological target: TBK1 (Homo sapiens (Human), UniProt Q9UHD2)
Test: TBK1 low ATP kinase assay (in vitro assay 1)
Type: biochemical
Conditions: in vitro assay 1, read-out: TBK1 low ATP kinase assay IC50

Chain of TBK1 (Q9UHD2 whole entry): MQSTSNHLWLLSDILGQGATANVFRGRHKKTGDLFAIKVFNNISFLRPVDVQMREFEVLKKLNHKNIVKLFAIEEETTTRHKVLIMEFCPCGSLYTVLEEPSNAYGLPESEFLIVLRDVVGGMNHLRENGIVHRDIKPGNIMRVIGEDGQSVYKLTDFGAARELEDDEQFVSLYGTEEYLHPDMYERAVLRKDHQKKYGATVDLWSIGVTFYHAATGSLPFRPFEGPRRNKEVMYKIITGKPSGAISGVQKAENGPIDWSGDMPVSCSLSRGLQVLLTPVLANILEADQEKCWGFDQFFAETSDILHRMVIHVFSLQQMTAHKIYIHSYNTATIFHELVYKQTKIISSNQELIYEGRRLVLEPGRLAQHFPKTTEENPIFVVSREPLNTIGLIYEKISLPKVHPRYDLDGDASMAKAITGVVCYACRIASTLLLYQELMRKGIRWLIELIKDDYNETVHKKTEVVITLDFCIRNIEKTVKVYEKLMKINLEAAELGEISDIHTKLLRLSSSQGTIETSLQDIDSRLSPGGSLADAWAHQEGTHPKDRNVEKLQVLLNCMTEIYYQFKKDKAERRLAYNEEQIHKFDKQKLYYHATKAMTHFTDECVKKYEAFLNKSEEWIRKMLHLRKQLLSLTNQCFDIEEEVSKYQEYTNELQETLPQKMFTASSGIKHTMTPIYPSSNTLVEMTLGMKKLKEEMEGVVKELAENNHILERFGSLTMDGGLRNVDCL

| IC50 [nM] | Compound |
| --- | --- |
| 21.7 | Cc1noc(-c2ccc3nc(Nc4cc(C(C)N5CCN(C(=O)C6(C(F)(F)F)CC6)CC5)ccn4)[nH]c3c2)n1 (single isomer, unassigned) [Example 16.06.04, {4-[(1R or 1S)-1-(2-{[6-(3-methyl-1,2,4-oxadiazol-5-yl)-1H-benzimidazol-2-yl]amino}pyridin-4-yl)ethyl]piperazin-1-yl}[1-(trifluoromethyl)cyclopropyl]methanone] |
| 13 | CC(C)(C)OC(=O)N1CCN(Cc2ccnc(Nc3nc4ccc(-c5ccnc(F)c5)cc4[nH]3)c2)CC1 [Example 137.01, tert-butyl 4-[(2-{[6-(2-fluoropyridin-4-yl)-1H-benzimidazol-2-yl]amino}pyridin-4-yl)methyl]piperazine-1-carboxylate] |
| 193 | O=C(C1CC1)N1CCN(Cc2ccnc(Nc3nc4ccc(-c5nc(Cc6ccccc6)no5)cc4[nH]3)c2)CC1 [Example 21.01, {4-[(2-{[6-(3-benzyl-1,2,4-oxadiazol-5-yl)-1H-benzimidazol-2-yl]amino}pyridin-4-yl)methyl]piperazin-1-yl}(cyclopropyl)methanone] |
| 4.1 | Nc1cc(-c2ccc3nc(Nc4cc(CN5CCN(C(=O)CC(F)(F)F)CC5)ccn4)[nH]c3c2)ccn1 [Example 138.02, 1-{4-[(2-{[6-(2-aminopyridin-4-yl)-1H-benzimidazol-2-yl]amino}pyridin-4-yl)methyl]piperazin-1-yl}-3,3,3-trifluoropropan-1-one] |
| 21 | Cc1cc(-c2ccc3nc(Nc4cc(CN5CCN(C(=O)C6CC6)CC5)ccn4)[nH]c3c2)cc(C#N)n1 [Example 136.03, 4-{2-[(4-{[4-(cyclopropylcarbonyl)piperazin-1-yl]methyl}pyridin-2-yl)amino]-1H-benzimidazol-6-yl}-6-methylpyridine-2-carbonitrile] |
| 7.22 | COc1cc(-c2ccc3nc(Nc4cc(C(C)N5CCN(C(=O)C6CC6)CC5)ccn4)[nH]c3c2)ncn1 (single isomer, unassigned) [Example 34.03.02.B, cyclopropyl{4-[(1S or 1R)-1-(2-{[6-(6-methoxypyrimidin-4-yl)-1H-benzimidazol-2-yl]amino}pyridin-4-yl)ethyl]piperazin-1-yl}methanone] |
| 9.5 | CSc1cc(-c2ccc3nc(Nc4cc(CN5CCN(C(=O)C6CC6)CC5)ccn4)[nH]c3c2)ncn1 [Example 95.02, cyclopropyl(4-{[2-({6-[6-(methylsulfanyl)pyrimidin-4-yl]-1H-benzimidazol-2-yl}amino)pyridin-4-yl]methyl}piperazin-1-yl)methanone] |
| 77.3 | COc1cncnc1-c1ccc2nc(Nc3cc(CN4CCN(C(=O)N5CCOCC5)CC4)ccn3)[nH]c2c1 [Example 35.01.07, {4-[(2-{[6-(5-methoxypyrimidin-4-yl)-1H-benzimidazol-2-yl]amino}pyridin-4-yl)methyl]piperazin-1-yl}(morpholin-4-yl)methanone] |
| 645 | COc1cnccc1-c1ccc2nc(Nc3cc(CN4CCN(C(=O)C5CCC5)CC4)ccn3)[nH]c2c1OCC(C)C [Example 50.03, cyclobutyl{4-[(2-{[6-(3-methoxypyridin-4-yl)-7-(2-methylpropoxy)-1H-benzimidazol-2-yl]amino}pyridin-4-yl)methyl]piperazin-1-yl}methanone] |
| 3.47 | CC(c1ccnc(Nc2nc3ccc(-c4cc(C(F)(F)F)ncn4)cc3[nH]2)c1)N1CCN(C(=O)C2CC2)CC1 (racemic) [Example 29.01.02, (rac)-cyclopropyl(4-{1-[2-({6-[6-(trifluoromethyl)pyrimidin-4-yl]-1H-benzimidazol-2-yl}amino)pyridin-4-yl]ethyl}piperazin-1-yl)methanone] |
| 58.4 | COc1c(OCC2CC2)ncnc1-c1ccc2nc(Nc3cc(CN4CCN(C(=O)CC(F)(F)F)CC4)ccn3)[nH]c2c1 [Example 65.01.02, 1-(4-{[2-({6-[6-(cyclopropylmethoxy)-5-methoxypyrimidin-4-yl]-1H-benzimidazol-2-yl}amino)pyridin-4-yl]methyl}piperazin-1-yl)-3,3,3-trifluoropropan-1-one] |
| 13 | CCc1cc(-c2ccc3nc(Nc4cc(CN5CCN(C(=O)C6CC6)CC5)ccn4)[nH]c3c2)ncn1 [Example 91.03, cyclopropyl{4-[(2-{[6-(6-ethylpyrimidin-4-yl)-1H-benzimidazol-2-yl]amino}pyridin-4-yl)methyl]piperazin-1-yl}methanone] |
| 45.9 | O=C(CC(F)(F)F)N1CCN(Cc2ccnc(Nc3nc4ccc(-c5ncnc(NC6CCC6)c5F)cc4[nH]3)c2)CC1 [Example 194.02, 1-(4-{[2-({6-[6-(cyclobutylamino)-5-fluoropyrimidin-4-yl]-1H-benzimidazol-2-yl}amino)pyridin-4-yl]methyl}piperazin-1-yl)-3,3,3-trifluoropropan-1-one] |
| 16 | COc1c(-c2ccc3nc(Nc4cc(CN5CCN(C(=O)C6CC6)CC5)ccn4)[nH]c3c2)ncnc1N(C)C [Example 107.01.02, cyclopropyl(4-{[2-({6-[6-(dimethylamino)-5-methoxypyrimidin-4-yl]-1H-benzimidazol-2-yl}amino)pyridin-4-yl]methyl}piperazin-1-yl)methanone] |
| 14 | Cc1cc(-c2ccc3nc(Nc4cc(C(C)N5CCN(C(=O)C6CC6)CC5)ccn4)[nH]c3c2)ncn1 (single isomer, unassigned) [Example 30.03.03.B, cyclopropyl{4-[(1S or 1R)-1-(2-{[6-(6-methylpyrimidin-4-yl)-1H-benzimidazol-2-yl]amino}pyridin-4-yl)ethyl]piperazin-1-yl}methanone] |
| 2.42 | CC(c1ccnc(Nc2nc3ccc(-c4ccncn4)cc3[nH]2)c1)N1CCN(C(=O)C2CC2)CC1 (racemic) [Example 23.04.02, (rac)-cyclopropyl{4-[1-(2-{[6-(pyrimidin-4-yl)-1H-benzimidazol-2-yl]amino}pyridin-4-yl)ethyl]piperazin-1-yl}methanone] |
| 988 | Cn1ccc(-c2ccc3nc(Nc4cc(CN5CCN(C(=O)C6CC6)CC5)ccn4)[nH]c3c2)n1 [Example 40.03, cyclopropyl{4-[(2-{[6-(1-methyl-1H-pyrazol-3-yl)-1H-benzimidazol-2-yl]amino}pyridin-4-yl)methyl]piperazin-1-yl}methanone] |
| 1 | COc1c(-c2ccc3nc(Nc4cc(C(C)N5CCN(C(=O)C6CC6)CC5)ccn4)[nH]c3c2)ncnc1N1CCC1 (single isomer, unassigned) [Example 111.02, (4-{(1R or 1S)-1-[2-({6-[6-(azetidin-1-yl)-5-methoxypyrimidin-4-yl]-1H-benzimidazol-2-yl}amino)pyridin-4-yl]ethyl}piperazin-1-yl)(cyclopropyl)methanone] |
| 14.5 | CC(c1ccnc(Nc2nc3ccc(-c4ccncn4)cc3[nH]2)c1)N1CCN(C(=O)C2CCC2)CC1 (single isomer, unassigned) [Example 23.05.03.B, cyclobutyl{4-[(1S or 1R)-1-(2-{[6-(pyrimidin-4-yl)-1H-benzimidazol-2-yl]amino}pyridin-4-yl)ethyl]piperazin-1-yl}methanone] |
| 19.5 | CCOc1nccc(-c2ccc3nc(Nc4cc(C(C)N5CCN(C(=O)CC(F)(F)F)CC5)ccn4)[nH]c3c2)n1 (single isomer, unassigned) [Example 26.03.01.B, 1-{4-[(1S or 1R)-1-(2-{[6-(2-ethoxypyrimidin-4-yl)-1H-benzimidazol-2-yl]amino}pyridin-4-yl)ethyl]piperazin-1-yl}-3,3,3-trifluoropropan-1-one] |
| 450 | Cc1noc(-c2ccc3nc(Nc4cc(CN5CCN(c6ccncc6)CC5)ccn4)[nH]c3c2)n1 [Example 101.12, 6-(3-methyl-1,2,4-oxadiazol-5-yl)-N-(4-{[4-(pyridin-4-yl)piperazin-1-yl]methyl}pyridin-2-yl)-1H-benzimidazol-2-amine] |
| 30 | CN(C)c1cc(-c2ccc3nc(Nc4cc(CN5CCN(C(=O)C6CC6)CC5)ccn4)[nH]c3c2)ccn1 [Example 135.03, cyclopropyl(4-{[2-({6-[2-(dimethylamino)pyridin-4-yl]-1H-benzimidazol-2-yl}amino)pyridin-4-yl]methyl}piperazin-1-yl)methanone] |
| 1840 | Cc1c[nH]c(-c2ccc3nc(Nc4cc(CN5CCN(C(=O)C6CC6)CC5)ccn4)[nH]c3c2)n1 [Example 43.02, cyclopropyl{4-[(2-{[6-(4-methyl-1H-imidazol-2-yl)-1H-benzimidazol-2-yl]amino}pyridin-4-yl)methyl]piperazin-1-yl}methanone] |
| 990 | CC(c1ccnc(Nc2nc3ccc(-c4cc(C(F)(F)F)nn4C)cc3[nH]2)c1)N1CCN(C(=O)C2CC2)CC1 (single isomer, unassigned) [Example 88.03, cyclopropyl(4-{(1R or 1S)-1-[2-({6-[1-methyl-3-(trifluoromethyl)-1H-pyrazol-5-yl]-1H-benzimidazol-2-yl}amino)pyridin-4-yl]ethyl}piperazin-1-yl)methanone] |
| 42.1 | CC(C)Nc1ncnc(-c2ccc3nc(Nc4cc(CN5CCN(C(=O)OC(C)(C)C)CC5)ccn4)[nH]c3c2)c1F [Example 193.01, tert-butyl 4-{[2-({6-[5-fluoro-6-(propan-2-ylamino)pyrimidin-4-yl]-1H-benzimidazol-2-yl}amino)pyridin-4-yl]methyl}piperazine-1-carboxylate] |
| 28.6 | COCCOCCS(=O)(=O)N1CCN(Cc2ccnc(Nc3nc4ccc(-c5ncncc5OC)cc4[nH]3)c2)CC1 [Example 35.01.11, N-{4-[(4-{[2-(2-methoxyethoxy)ethyl]sulfonyl}piperazin-1-yl)methyl]pyridin-2-yl}-6-(5-methoxypyrimidin-4-yl)-1H-benzimidazol-2-amine] |
| 990 | CC(=O)N1CCN(Cc2ccnc(Nc3nc4ccc(-c5nc(C)no5)cc4[nH]3)c2)CC1 [Example 101.06, 1-{4-[(2-{[6-(3-methyl-1,2,4-oxadiazol-5-yl)-1H-benzimidazol-2-yl]amino}pyridin-4-yl)methyl]piperazin-1-yl}ethanone] |
| 19.7 | COc1c(C)ncnc1-c1ccc2nc(Nc3cc(CN4CCN(C(=O)CC(F)(F)F)CC4)ccn3)[nH]c2c1 [Example 61.01.01, 3,3,3-trifluoro-1-{4-[(2-{[6-(5-methoxy-6-methylpyrimidin-4-yl)-1H-benzimidazol-2-yl]amino}pyridin-4-yl)methyl]piperazin-1-yl}propan-1-one] |
